System: 885724-159-R-J1-PDC complex spheroid viability
Assay: Anticancer human tumor 885724-159-R-J1-PDC patient-derived pancreatic adenocarcinoma cell line growth inhibition [POLQ]
Details: for IC50: curve of first compound; for viability, T/C: stronger effect = lower value
How it was run: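 Growth inhibition in 3D: complex spheroids (tumor PDC, HUVEC, MSC) treated with POLQ inhibitor combinations; where Cmax unknown, highest tested concentration 10 microM, except SN-38 at 1 microM.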

[1] = second compound 0.0316 µM, first compound 0.0316 µM
[2] = second compound 0.0316 µM, first compound 0.1 µM
[3] = second compound 0.0316 µM, first compound 0.316 µM
[4] = second compound 0.0316 µM, first compound 1 µM
[5] = second compound 0.0316 µM, first compound 3.16 µM
[6] = second compound 0.0316 µM, first compound 10 µM
[7] = second compound 0.1 µM, first compound 0.0316 µM
[8] = second compound 0.1 µM, first compound 0.1 µM
[9] = second compound 0.1 µM, first compound 0.316 µM
[10] = second compound 0.1 µM, first compound 1 µM
[11] = second compound 0.1 µM, first compound 3.16 µM
[12] = second compound 0.1 µM, first compound 10 µM
[13] = second compound 0.316 µM, first compound 0.0316 µM
[14] = second compound 0.316 µM, first compound 0.1 µM
[15] = second compound 0.316 µM, first compound 0.316 µM
[16] = second compound 0.316 µM, first compound 1 µM
[17] = second compound 0.316 µM, first compound 3.16 µM
[18] = second compound 0.316 µM, first compound 10 µM
[19] = second compound 1 µM, first compound 0.0316 µM
[20] = second compound 1 µM, first compound 0.1 µM
[21] = second compound 1 µM, first compound 0.316 µM
[22] = second compound 1 µM, first compound 1 µM
[23] = second compound 1 µM, first compound 3.16 µM
[24] = second compound 1 µM, first compound 10 µM
[25] = second compound 3.16 µM, first compound 0.0316 µM
[26] = second compound 3.16 µM, first compound 0.1 µM
[27] = second compound 3.16 µM, first compound 0.316 µM
[28] = second compound 3.16 µM, first compound 1 µM
[29] = second compound 3.16 µM, first compound 3.16 µM
[30] = second compound 3.16 µM, first compound 10 µM
[31] = second compound 10 µM, first compound 0.0316 µM
[32] = second compound 10 µM, first compound 0.1 µM
[33] = second compound 10 µM, first compound 0.316 µM
[34] = second compound 10 µM, first compound 1 µM
[35] = second compound 10 µM, first compound 3.16 µM
[36] = second compound 10 µM, first compound 10 µM
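Also: spheroids exposed to compounds for 7 days.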

CC(C)n1c(=O)n(C)c2cnc3cc(F)c(-c4ccc(OCCCN5CCCCC5)nc4)cc3c21 + Nc1ccc(C#CCN(C(=O)Cc2ncc(C(F)(F)F)cc2C(F)(F)F)c2ccc(F)cc2)nn1
IC50 (second compound 0.0316 µM): > 10 µM | IC50 (second compound 0.1 µM): > 10 µM | IC50 (second compound 0.316 µM): > 10 µM | IC50 (second compound 1 µM): > 10 µM | IC50 (second compound 3.16 µM): > 10 µM | IC50 (second compound 10 µM): > 10 µM | viability, T/C [1]: 103% | viability, T/C [2]: 103% | viability, T/C [3]: 101% | viability, T/C [4]: 98.2% | viability, T/C [5]: 85.3% | viability, T/C [6]: 81.5% | viability, T/C [7]: 104% | viability, T/C [8]: 94.9% | viability, T/C [9]: 98% | viability, T/C [10]: 98.9% | viability, T/C [11]: 98.9% | viability, T/C [12]: 93.7% | viability, T/C [13]: 104% | viability, T/C [14]: 102% | viability, T/C [15]: 96.3% | viability, T/C [16]: 94.5% | viability, T/C [17]: 94% | viability, T/C [18]: 87.7% | viability, T/C [19]: 111% | viability, T/C [20]: 104% | viability, T/C [21]: 96.8% | viability, T/C [22]: 97.8% | viability, T/C [23]: 97% | viability, T/C [24]: 84.9% | viability, T/C [25]: 98.4% | viability, T/C [26]: 104% | viability, T/C [27]: 98.1% | viability, T/C [28]: 101% | viability, T/C [29]: 90% | viability, T/C [30]: 92.1% | viability, T/C [31]: 106% | viability, T/C [32]: 97.4% | viability, T/C [33]: 108% | viability, T/C [34]: 103% | viability, T/C [35]: 90.7% | viability, T/C [36]: 73.7%

CC1COCCN1c1cc(-c2ccnn2C)c2ccnc(-c3ccn[nH]3)c2n1 (stereo not drawn) + Nc1ccc(C#CCN(C(=O)Cc2ncc(C(F)(F)F)cc2C(F)(F)F)c2ccc(F)cc2)nn1
IC50 (second compound 0.0316 µM): 0.298 µM | IC50 (second compound 0.1 µM): 0.275 µM | IC50 (second compound 0.316 µM): 0.267 µM | IC50 (second compound 1 µM): 0.178 µM | IC50 (second compound 3.16 µM): 0.275 µM | IC50 (second compound 10 µM): 0.458 µM | viability, T/C [1]: 95.7% | viability, T/C [2]: 60.6% | viability, T/C [3]: 51% | viability, T/C [4]: 43.9% | viability, T/C [5]: 47.7% | viability, T/C [6]: 44.4% | viability, T/C [7]: 108% | viability, T/C [8]: 60.8% | viability, T/C [9]: 49.6% | viability, T/C [10]: 48.1% | viability, T/C [11]: 42.7% | viability, T/C [12]: 39.5% | viability, T/C [13]: 96.1% | viability, T/C [14]: 58.4% | viability, T/C [15]: 49.7% | viability, T/C [16]: 47.5% | viability, T/C [17]: 46.4% | viability, T/C [18]: 39.1% | viability, T/C [19]: 90% | viability, T/C [20]: 52.3% | viability, T/C [21]: 49% | viability, T/C [22]: 47.5% | viability, T/C [23]: 49.9% | viability, T/C [24]: 38.4% | viability, T/C [25]: 95.9% | viability, T/C [26]: 61.5% | viability, T/C [27]: 48.4% | viability, T/C [28]: 45.2% | viability, T/C [29]: 43.4% | viability, T/C [30]: 43.8% | viability, T/C [31]: 106% | viability, T/C [32]: 64% | viability, T/C [33]: 52.4% | viability, T/C [34]: 49.3% | viability, T/C [35]: 46.6% | viability, T/C [36]: 42.5%

CC1COCCN1c1cc(C2(S(C)(=N)=O)CC2)nc(-c2ccnc3[nH]ccc23)n1 (stereo not drawn) + Nc1ccc(C#CCN(C(=O)Cc2ncc(C(F)(F)F)cc2C(F)(F)F)c2ccc(F)cc2)nn1
IC50 (second compound 0.0316 µM): > 10 µM | IC50 (second compound 0.1 µM): 7.07 µM | IC50 (second compound 0.316 µM): > 10 µM | IC50 (second compound 1 µM): 6.07 µM | IC50 (second compound 3.16 µM): 8 µM | IC50 (second compound 10 µM): > 10 µM | viability, T/C [1]: 87.3% | viability, T/C [2]: 89.6% | viability, T/C [3]: 90.4% | viability, T/C [4]: 75.9% | viability, T/C [5]: 55.7% | viability, T/C [6]: 50% | viability, T/C [7]: 104% | viability, T/C [8]: 94.5% | viability, T/C [9]: 94% | viability, T/C [10]: 71.5% | viability, T/C [11]: 57.8% | viability, T/C [12]: 46.7% | viability, T/C [13]: 95.3% | viability, T/C [14]: 97.2% | viability, T/C [15]: 83.4% | viability, T/C [16]: 63.4% | viability, T/C [17]: 55.5% | viability, T/C [18]: 53.2% | viability, T/C [19]: 95.3% | viability, T/C [20]: 85.1% | viability, T/C [21]: 87.8% | viability, T/C [22]: 75.9% | viability, T/C [23]: 55.8% | viability, T/C [24]: 45.4% | viability, T/C [25]: 94.3% | viability, T/C [26]: 88.6% | viability, T/C [27]: 91.1% | viability, T/C [28]: 69.9% | viability, T/C [29]: 53.5% | viability, T/C [30]: 48.4% | viability, T/C [31]: 95.6% | viability, T/C [32]: 99.7% | viability, T/C [33]: 94.7% | viability, T/C [34]: 64.1% | viability, T/C [35]: 57.8% | viability, T/C [36]: 47%

COc1ccc([C@@H](O)c2cc(-c3ncnc4cc(N5CCOCC5)ccc34)c(F)cc2Cl)nn1 + Nc1ccc(C#CCN(C(=O)Cc2ncc(C(F)(F)F)cc2C(F)(F)F)c2ccc(F)cc2)nn1
IC50 (second compound 0.0316 µM): 3.7 µM | IC50 (second compound 0.1 µM): 3.83 µM | IC50 (second compound 0.316 µM): 4.24 µM | IC50 (second compound 1 µM): 4.29 µM | IC50 (second compound 3.16 µM): 3.94 µM | IC50 (second compound 10 µM): 4.85 µM | viability, T/C [1]: 83.2% | viability, T/C [2]: 105% | viability, T/C [3]: 73.6% | viability, T/C [4]: 74.9% | viability, T/C [5]: 52.3% | viability, T/C [6]: 33.1% | viability, T/C [7]: 100% | viability, T/C [8]: 89.6% | viability, T/C [9]: 84.4% | viability, T/C [10]: 75.1% | viability, T/C [11]: 51% | viability, T/C [12]: 32.9% | viability, T/C [13]: 98.7% | viability, T/C [14]: 103% | viability, T/C [15]: 86% | viability, T/C [16]: 73% | viability, T/C [17]: 57.5% | viability, T/C [18]: 32.8% | viability, T/C [19]: 92.8% | viability, T/C [20]: 86.3% | viability, T/C [21]: 81.5% | viability, T/C [22]: 69.5% | viability, T/C [23]: 57.5% | viability, T/C [24]: 33.3% | viability, T/C [25]: 91.5% | viability, T/C [26]: 93.9% | viability, T/C [27]: 82.9% | viability, T/C [28]: 67.8% | viability, T/C [29]: 56% | viability, T/C [30]: 33.5% | viability, T/C [31]: 96.7% | viability, T/C [32]: 89.4% | viability, T/C [33]: 87.4% | viability, T/C [34]: 70.6% | viability, T/C [35]: 59.1% | viability, T/C [36]: 36.6%
